Laboratory results: the NIST ThermoML archive (doi:10.1021/je060271a)
Values joined by “and” are separate entries in the source; they are usually repeats but may differ in a detail not shown here. Equal values may be shown once. Numbers after ± are expanded uncertainties.

Details: 343.15 K, Liquid, Vibrating tube method

CCCCCC(=O)OCC(COC(=O)CCCCC)(COC(=O)CCCCC)COC(=O)CCCCC [pentaerythritol tetrahexanoate]
mass density (311.7 kPa): 957.4 ± 1.2 kg/m3 | mass density (311.9 kPa): 957.5 ± 1.2 kg/m3 | mass density (312 kPa): 957.2 ± 1.2 kg/m3 | mass density (312.2 kPa): 957.3 ± 1.2 kg/m3 | mass density (312.5 kPa): 957.3 ± 1.2 kg/m3 | mass density (315 kPa): 957.3 ± 1.2 kg/m3 | mass density (315.7 kPa): 957.4 ± 1.2 kg/m3 | mass density (316 kPa): 957.4 ± 1.2 kg/m3 | mass density (316.5 kPa): 957.4 ± 1.2 kg/m3 | mass density (316.6 kPa): 957.4 ± 1.2 kg/m3 | mass density (316.7 kPa): 957.4 ± 1.2 kg/m3 | mass density (318.5 kPa): 957.4 ± 1.2 kg/m3 | mass density (318.8 kPa): 957.3 ± 1.2 kg/m3 | mass density (319.3 kPa): 957.3 ± 1.2 kg/m3 and 957.2 ± 1.2 kg/m3 and 957.4 ± 1.2 kg/m3 | mass density (319.7 kPa): 957.3 ± 1.2 kg/m3 | mass density (319.9 kPa): 957.3 ± 1.2 kg/m3 | mass density (320.4 kPa): 957.2 ± 1.2 kg/m3 | mass density (320.7 kPa): 957.3 ± 1.6 kg/m3 | mass density (321.2 kPa): 957.3 ± 1.2 kg/m3 | mass density (322.1 kPa): 957.1 ± 1.2 kg/m3 | mass density (322.5 kPa): 957.3 ± 1.2 kg/m3 | mass density (322.8 kPa): 957.3 ± 1.6 kg/m3 | mass density (323.1 kPa): 957.3 ± 1.2 kg/m3 | mass density (323.2 kPa): 957.4 ± 1.2 kg/m3 | mass density (323.3 kPa): 957.2 ± 1.2 kg/m3 | mass density (323.7 kPa): 957.4 ± 1.2 kg/m3 | mass density (323.9 kPa): 957.3 ± 1.2 kg/m3 | mass density (324 kPa): 957.3 ± 1.2 kg/m3 | mass density (324.2 kPa): 957.3 ± 1.6 kg/m3 | mass density (324.5 kPa): 957.3 ± 1.2 kg/m3 | mass density (324.7 kPa): 957.3 ± 1.6 kg/m3 | mass density (325.1 kPa): 957.3 ± 1.2 kg/m3 | mass density (325.2 kPa): 957.3 ± 1.2 kg/m3 | mass density (325.9 kPa): 957.3 ± 1.2 kg/m3 | mass density (326.3 kPa): 957.3 ± 1.2 kg/m3 | mass density (326.4 kPa): 957.4 ± 1.2 kg/m3 | mass density (326.6 kPa): 957.3 ± 1.2 kg/m3 | mass density (327 kPa): 957.2 ± 1.2 kg/m3 | mass density (327.1 kPa): 957.3 ± 1.2 kg/m3 | mass density (327.5 kPa): 957.4 ± 1.2 kg/m3 | mass density (327.7 kPa): 957.2 ± 1.2 kg/m3 | mass density (328 kPa): 957.4 ± 1.2 kg/m3 | mass density (333.2 kPa): 957.4 ± 1.2 kg/m3 | mass density (333.4 kPa): 957.3 ± 1.2 kg/m3 | mass density (333.7 kPa): 957.2 ± 1.2 kg/m3 | mass density (333.9 kPa): 957.3 ± 1.2 kg/m3 | mass density (334.3 kPa): 957.2 ± 1.2 kg/m3 | mass density (334.6 kPa): 957.3 ± 1.2 kg/m3 | mass density (334.8 kPa): 957.3 ± 1.2 kg/m3 | mass density (335.1 kPa): 957.4 ± 1.2 kg/m3 | mass density (335.5 kPa): 957.3 ± 1.4 kg/m3 | mass density (336.2 kPa): 957.3 ± 1.2 kg/m3 | mass density (336.5 kPa): 957.3 ± 1.2 kg/m3 | mass density (336.9 kPa): 957.4 ± 1.2 kg/m3 | mass density (338.1 kPa): 957.3 ± 1.2 kg/m3 | mass density (338.6 kPa): 957.3 ± 1.2 kg/m3 | mass density (339.1 kPa): 957.3 ± 1.2 kg/m3 and 957.2 ± 1.2 kg/m3 | mass density (339.5 kPa): 957.3 ± 1.2 kg/m3 | mass density (339.8 kPa): 957.3 ± 1.2 kg/m3 | mass density (340.2 kPa): 957.3 ± 1.2 kg/m3 | mass density (340.5 kPa): 957.3 ± 1.2 kg/m3 | mass density (340.9 kPa): 957.5 ± 1.2 kg/m3 | mass density (341.6 kPa): 957.4 ± 1.2 kg/m3 and 957.2 ± 1.2 kg/m3 | mass density (341.9 kPa): 957.4 ± 1.2 kg/m3 | mass density (342.1 kPa): 957.4 ± 1.2 kg/m3 | mass density (342.8 kPa): 957.2 ± 1.2 kg/m3 and 957.3 ± 1.2 kg/m3 | mass density (343.1 kPa): 957.3 ± 1.2 kg/m3 | mass density (343.5 kPa): 957.3 ± 1.2 kg/m3 | mass density (343.6 kPa): 957.4 ± 1.2 kg/m3 | mass density (344.2 kPa): 957.4 ± 1.2 kg/m3 | mass density (344.3 kPa): 957.3 ± 1.2 kg/m3 | mass density (345.9 kPa): 957.3 ± 1.2 kg/m3 | mass density (346.4 kPa): 957.4 ± 1.2 kg/m3 | mass density (346.8 kPa): 957.3 ± 1.2 kg/m3 | mass density (347.3 kPa): 957.4 ± 1.2 kg/m3 | mass density (348 kPa): 957.3 ± 1.2 kg/m3 | mass density (348.3 kPa): 957.2 ± 1.2 kg/m3 | mass density (351.8 kPa): 957.3 ± 1.2 kg/m3 | mass density (352.2 kPa): 957.2 ± 1.2 kg/m3 | mass density (352.7 kPa): 957.4 ± 1.2 kg/m3 | mass density (352.9 kPa): 957.2 ± 1.2 kg/m3 | mass density (353 kPa): 957.3 ± 1.2 kg/m3 | mass density (358.8 kPa): 957.4 ± 1.2 kg/m3 | mass density (359.3 kPa): 957.3 ± 1.2 kg/m3 | mass density (359.6 kPa): 957.4 ± 1.2 kg/m3 | mass density (363.3 kPa): 957.4 ± 1.2 kg/m3 | mass density (363.6 kPa): 957.3 ± 1.2 kg/m3 | mass density (364 kPa): 957.4 ± 1.2 kg/m3 | mass density (364.5 kPa): 957.4 ± 1.2 kg/m3 | mass density (364.7 kPa): 957.4 ± 1.2 kg/m3 | mass density (365 kPa): 957.4 ± 1.2 kg/m3 | mass density (365.4 kPa): 957.4 ± 1.2 kg/m3 | mass density (368.8 kPa): 957.3 ± 1.2 kg/m3 | mass density (369.2 kPa): 957.3 ± 1.2 kg/m3 | mass density (369.7 kPa): 957.3 ± 1.2 kg/m3 | mass density (370.1 kPa): 957.4 ± 1.2 kg/m3 | mass density (372.8 kPa): 957.3 ± 1.2 kg/m3 | mass density (373.2 kPa): 957.4 ± 1.2 kg/m3 | mass density (373.7 kPa): 957.4 ± 1.2 kg/m3 | mass density (374.1 kPa): 957.5 ± 1.2 kg/m3 and 957.4 ± 1.2 kg/m3 | mass density (374.7 kPa): 957.3 ± 1.2 kg/m3 | mass density (374.8 kPa): 957.3 ± 1.2 kg/m3 | mass density (375.5 kPa): 957.3 ± 1.2 kg/m3 | mass density (375.8 kPa): 957.2 ± 1.2 kg/m3 | mass density (376 kPa): 957.3 ± 1.2 kg/m3 | mass density (376.5 kPa): 957.4 ± 1.2 kg/m3 | mass density (376.8 kPa): 957.4 ± 1.2 kg/m3 | mass density (377.4 kPa): 957.3 ± 1.2 kg/m3 | mass density (377.5 kPa): 957.4 ± 1.2 kg/m3 | mass density (378.1 kPa): 957.4 ± 1.2 kg/m3 | mass density (378.6 kPa): 957.4 ± 1.2 kg/m3 | mass density (379.1 kPa): 957.3 ± 1.2 kg/m3 | mass density (380.5 kPa): 957.4 ± 1.2 kg/m3 | mass density (380.8 kPa): 957.5 ± 1.2 kg/m3 | mass density (381.2 kPa): 957.5 ± 1.2 kg/m3 | mass density (381.5 kPa): 957.5 ± 1.2 kg/m3 | mass density (382.1 kPa): 957.3 ± 1.2 kg/m3 | mass density (382.7 kPa): 957.3 ± 1.2 kg/m3 | mass density (382.9 kPa): 957.4 ± 1.2 kg/m3 | mass density (383.6 kPa): 957.4 ± 1.2 kg/m3 | mass density (383.8 kPa): 957.4 ± 1.2 kg/m3 | mass density (384.3 kPa): 957.4 ± 1.2 kg/m3 | mass density (384.5 kPa): 957.4 ± 1.2 kg/m3 | mass density (384.8 kPa): 957.5 ± 1.2 kg/m3 | mass density (385.5 kPa): 957.4 ± 1.2 kg/m3 and 957.5 ± 1.2 kg/m3 | mass density (385.9 kPa): 957.4 ± 1.2 kg/m3 | mass density (386.7 kPa): 957.5 ± 1.2 kg/m3 | mass density (390.6 kPa): 957.4 ± 1.2 kg/m3 | mass density (390.9 kPa): 957.4 ± 1.2 kg/m3 | mass density (391.4 kPa): 957.3 ± 1.2 kg/m3 | mass density (391.8 kPa): 957.5 ± 1.2 kg/m3 | mass density (392 kPa): 957.3 ± 1.2 kg/m3 | mass density (392.8 kPa): 957.4 ± 1.2 kg/m3 | mass density (393.2 kPa): 957.4 ± 1.2 kg/m3 | mass density (393.7 kPa): 957.4 ± 1.2 kg/m3 | mass density (394 kPa): 957.4 ± 1.2 kg/m3 | mass density (394.9 kPa): 957.3 ± 1.2 kg/m3 | mass density (395.1 kPa): 957.5 ± 1.2 kg/m3 | mass density (395.4 kPa): 957.3 ± 1.2 kg/m3 | mass density (395.8 kPa): 957.3 ± 1.2 kg/m3 | mass density (396.3 kPa): 957.4 ± 1.2 kg/m3 | mass density (396.8 kPa): 957.4 ± 1.2 kg/m3 | mass density (397.2 kPa): 957.4 ± 1.2 kg/m3 | mass density (397.7 kPa): 957.5 ± 1.2 kg/m3 | mass density (397.9 kPa): 957.4 ± 1.2 kg/m3
